Structures are written as SMILES. pIC50: −log10 of the molar value. Where only a bound is given, the exact number is not on record here.

In the assay the test system is PC3 cells. The assay is described as follows: NAMPT Cell Proliferation Assay. Format: cell-based. To be noted: Homo sapiens, PC-3, 120 h, 5 days incubation, cell viability by Cell Titer Glo. A digest of the protocol:
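Seeded at 500 cells/well in RPMI with 10% heat-inactivated FBS and left to attach overnight at 37° C, 5% CO2. Compounds were added as 10-fold dilutions […] for 5 days, then viability was read by CellTiter-Glo. IC50s came from sigmoidal fits of percent inhibition.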
What is called pIC50 is −log10 of the IC50, conventionally taken in molar units. As for `O=C(Nc1ccc(S(=O)(=O)C2CCN(C(=O)c3cccc4ccccc34)CC2)cc1)C1CN(c2cccnn2)C1` [Example 591, N-(4-{[1-(naphthalen-1-ylcarbonyl)piperidin-4-yl]sulfonyl}phenyl)-1-(pyridazin-3-yl)azetidine-3-carboxamide], the negative logarithm of the IC50 (pIC50) was 7.03.

`O=C(Nc1ccc(S(=O)(=O)C2CCN(C(=O)C3CC3)CC2)cc1)C1CN(c2cccnn2)C1` [Example 592, N-(4-{[1-(cyclopropylcarbonyl)piperidin-4-yl]sulfonyl}phenyl)-1-(pyridazin-3-yl)azetidine-3-carboxamide]: the pIC50 was 6.21.

As to `O=C(Nc1ccc(S(=O)(=O)C2CCN(C(=O)c3cc(F)cc(F)c3)CC2)cc1)C1CN(c2cccnn2)C1` [Example 593, N-(4-{[1-(3,5-difluorobenzoyl)piperidin-4-yl]sulfonyl}phenyl)-1-(pyridazin-3-yl)azetidine-3-carboxamide], the pIC50 was 7.20.

As for `CC(C)(C)C(=O)N1CCC(S(=O)(=O)c2ccc(NC(=O)C3CN(c4cccnn4)C3)cc2)CC1` [Example 594, N-(4-{[1-(2,2-dimethylpropanoyl)piperidin-4-yl]sulfonyl}phenyl)-1-(pyridazin-3-yl)azetidine-3-carboxamide], the pIC50 was 7.32.

In turn, `CC(C)(C)CC(=O)N1CCC(S(=O)(=O)c2ccc(NC(=O)C3CN(c4cccnn4)C3)cc2)CC1` [Example 595, N-(4-{[1-(3,3-dimethylbutanoyl)piperidin-4-yl]sulfonyl}phenyl)-1-(pyridazin-3-yl)azetidine-3-carboxamide] gave a pIC50 of 7.09.

The compound `COc1cccc(C(=O)N2CCC(S(=O)(=O)c3ccc(NC(=O)C4CN(c5cccnn5)C4)cc3)CC2)c1` [Example 596, N-(4-{[1-(3-methoxybenzoyl)piperidin-4-yl]sulfonyl}phenyl)-1-(pyridazin-3-yl)azetidine-3-carboxamide] gave a pIC50 of 7.07.

`CC(C)CC(=O)N1CCC(S(=O)(=O)c2ccc(NC(=O)C3CN(c4cccnn4)C3)cc2)CC1` [Example 597, N-(4-{[1-(3-methylbutanoyl)piperidin-4-yl]sulfonyl}phenyl)-1-(pyridazin-3-yl)azetidine-3-carboxamide] gave a negative logarithm of the IC50 (pIC50) of 6.93.

Take `CC(C)C(=O)N1CCC(S(=O)(=O)c2ccc(NC(=O)C3CN(c4cccnn4)C3)cc2)CC1` [Example 598, N-(4-{[1-(2-methylpropanoyl)piperidin-4-yl]sulfonyl}phenyl)-1-(pyridazin-3-yl)azetidine-3-carboxamide]: the negative-log IC50 (pIC50) was 6.68.

Compound `O=C(Nc1ccc(S(=O)(=O)C2CCN(C(=O)C3CCCC3)CC2)cc1)C1CN(c2cccnn2)C1` [Example 599, N-(4-{[1-(cyclopentylcarbonyl)piperidin-4-yl]sulfonyl}phenyl)-1-(pyridazin-3-yl)azetidine-3-carboxamide] had a pIC50 of 7.10.

With `O=C(Nc1ccc(S(=O)(=O)C2CCN(C(=O)Cc3ccccc3)CC2)cc1)C1CN(c2cccnn2)C1` [Example 600, N-(4-{[1-(phenylacetyl)piperidin-4-yl]sulfonyl}phenyl)-1-(pyridazin-3-yl)azetidine-3-carboxamide], the pIC50 was 6.66.

Compound `O=C(Nc1ccc(S(=O)(=O)C2CCN(C(=O)C3(c4ccccc4)CC3)CC2)cc1)C1CN(c2cccnn2)C1` [Example 601, N-[4-({1-[(1-phenylcyclopropyl)carbonyl]piperidin-4-yl}sulfonyl)phenyl]-1-(pyridazin-3-yl)azetidine-3-carboxamide] had a pIC50 of 7.01.

In turn, `CC(C)(N)C(=O)N1CCC(c2ccc(NC(=O)C3CN(c4cccnc4)C3)cc2)CC1` [Example 602, N-{4-[1-(2-methylalanyl)piperidin-4-yl]phenyl}-1-(pyridin-3-yl)azetidine-3-carboxamide] gave a pIC50 of 8.70.

Take `CC(C)Cn1cc(-c2ccc(C(=O)N[C@@H]3CCN(c4cccnc4)C3)s2)cn1` [Example 603, 5-[1-(2-methylpropyl)-1H-pyrazol-4-yl]-N-[(3R)-1-(pyridin-3-yl)pyrrolidin-3-yl]thiophene-2-carboxamide]: the pIC50 was 6.24.

As to `CC(C)Cn1cc(-c2ccc(C(=O)N[C@@H]3CCN(c4ccnnc4)C3)s2)cn1` [Example 604, 5-[1-(2-methylpropyl)-1H-pyrazol-4-yl]-N-[(3R)-1-(pyridazin-4-yl)pyrrolidin-3-yl]thiophene-2-carboxamide], the negative-log IC50 (pIC50) is 5.08.

In turn, `CC(C)Cn1cc(-c2ccc(C(=O)N[C@@H]3CCN(c4cccnn4)C3)s2)cn1` [Example 605, 5-[1-(2-methylpropyl)-1H-pyrazol-4-yl]N-[(3R)-1-(pyridazin-3-yl)pyrrolidin-3-yl]thiophene-2-carboxamide] gave a pIC50 of 5.85.

In turn, `CC(C)Cn1cc(-c2ccc(C(=O)N[C@H]3CCN(c4cccnn4)C3)s2)cn1` [Example 606, 5-[1-(2-methylpropyl)-1H-pyrazol-4-yl]-N-[(3S)-1-(pyridazin-3-yl)pyrrolidin-3-yl]thiophene-2-carboxamide] gave a negative-log IC50 (pIC50) of 7.06.

For the compound `CC(C)Cn1cc(-c2ccc(C(=O)N[C@H]3CCN(c4ccnnc4)C3)s2)cn1` [Example 607, 5-[1-(2-methylpropyl)-1H-pyrazol-4-yl]-N-[(3S)-1-(pyridazin-4-yl)pyrrolidin-3-yl]thiophene-2-carboxamide], the pIC50 was 5.12.

Compound `CC(C)Cn1cc(-c2ccc(C(=O)N[C@H]3CCN(c4cccnc4)C3)s2)cn1` [Example 608, 5-[1-(2-methylpropyl)-1H-pyrazol-4-yl]-N-[(3S)-1-(pyridin-3-yl)pyrrolidin-3-yl]thiophene-2-carboxamide] showed a pIC50 of 6.15.

On to `CC(C)(C)OC(=O)N1CCN(C(C)(C)C(=O)N2CCC(c3ccc(NC(=O)C4CN(c5cccnc5)C4)cc3)CC2)CC1` [Example 609, tert-butyl 4-(2-methyl-1-oxo-1-{4-[4-({[1-(pyridin-3-yl)azetidin-3-yl]carbonyl}amino)phenyl]piperidin-1-yl}propan-2-yl)piperazine-1-carboxylate], for which the pIC50 is 8.69.

With `CC(C)(C(=O)N1CCC(c2ccc(NC(=O)C3CN(c4cccnc4)C3)cc2)CC1)N1CCNCC1` [Example 610, N-(4-{1-[2-methyl-2-(piperazin-1-yl)propanoyl]piperidin-4-yl}phenyl)-1-(pyridin-3-yl)azetidine-3-carboxamide], the pIC50 was 8.10.

On to `O=C(Nc1ccc(S(=O)(=O)C2CCN(C(=O)c3ccccc3Cl)CC2)cc1)C1CN(c2cccnn2)C1` [Example 611, N-(4-{[1-(2-chlorobenzoyl)piperidin-4-yl]sulfonyl}phenyl)-1-(pyridazin-3-yl)azetidine-3-carboxamide], for which the pIC50 was 7.05.

For the compound `CC(C)CCC(=O)N1CCC(S(=O)(=O)c2ccc(NC(=O)C3CN(c4cccnn4)C3)cc2)CC1` [Example 612, N-(4-{[1-(4-methylpentanoyl)piperidin-4-yl]sulfonyl}phenyl)-1-(pyridazin-3-yl)azetidine-3-carboxamide], the negative-log IC50 (pIC50) is 7.27.

As to `O=C(Nc1ccc(S(=O)(=O)C2CCN(C(=O)Cc3ccccc3F)CC2)cc1)C1CN(c2cccnn2)C1` [Example 613, N-[4-({1-[(2-fluorophenyl)acetyl]piperidin-4-yl}sulfonyl)phenyl]-1-(pyridazin-3-yl)azetidine-3-carboxamide], the pIC50 was 6.15.

Turning to `CC(C)C(=O)N1CCC(S(=O)(=O)c2ccc(NC(=O)C3CN(c4ccnnc4)C3)cc2)CC1` [Example 614, N-(4-{[1-(2-methylpropanoyl)piperidin-4-yl]sulfonyl}phenyl)-1-(pyridazin-4-yl)azetidine-3-carboxamide], the negative logarithm of the IC50 (pIC50) was 5.12.

`O=C(Nc1ccc(S(=O)(=O)C2CCN(C(=O)c3ccccc3)CC2)cc1)C1CN(c2ccnnc2)C1` [Example 615, N-{4-[(1-benzoylpiperidin-4-yl)sulfonyl]phenyl}-1-(pyridazin-4-yl)azetidine-3-carboxamide]: the pIC50 was 5.21.

`O=C(Nc1ccc(S(=O)(=O)C2CCN(C(=O)c3ccc(F)cc3)CC2)cc1)C1CN(c2ccnnc2)C1` [Example 616, N-(4-{[1-(4-fluorobenzoyl)piperidin-4-yl]sulfonyl}phenyl)-1-(pyridazin-4-yl)azetidine-3-carboxamide]: the pIC50 is 5.14.

With `O=C(Nc1ccc(S(=O)(=O)C2CCN(C(=O)C3CCCC3)CC2)cc1)C1CN(c2ccnnc2)C1` [Example 617, N-(4-{[1-(cyclopentylcarbonyl)piperidin-4-yl]sulfonyl}phenyl)-1-(pyridazin-4-yl)azetidine-3-carboxamide], the pIC50 was 5.73.

In turn, `CC(C)Cn1cc(-c2ccc(C(=O)N[C@@H]3CCN(c4cnnc(Cl)c4Cl)C3)s2)cn1` [Example 618, N-[(3R)-1-(5,6-dichloropyridazin-4-yl)pyrrolidin-3-yl]-5-[1-(2-methylpropyl)-1H-pyrazol-4-yl]thiophene-2-carboxamide] gave a negative-log IC50 (pIC50) of less than 5.00.

In turn, `CC(C)Cn1cc(-c2ccc(C(=O)N[C@@H]3CCN(c4ccc(Cl)nn4)C3)s2)cn1` [Example 619, N-[(3R)-1-(6-chloropyridazin-3-yl)pyrrolidin-3-yl]-5-[1-(2-methylpropyl)-1H-pyrazol-4-yl]thiophene-2-carboxamide] gave a pIC50 of less than 5.00.

`CC(C)Cn1cc(-c2ccc(C(=O)N[C@H]3CCN(c4cnnc(Cl)c4Cl)C3)s2)cn1` [Example 620, N-[(3S)-1-(5,6-dichloropyridazin-4-yl)pyrrolidin-3-yl]-5-[1-(2-methylpropyl)-1H-pyrazol-4-yl]thiophene-2-carboxamide] had a negative logarithm of the IC50 (pIC50) of 5.55.

As for `CC(C)Cn1cc(-c2ccc(C(=O)N[C@H]3CCN(c4ccc(Cl)nn4)C3)s2)cn1` [Example 621, N-[(3S)-1-(6-chloropyridazin-3-yl)pyrrolidin-3-yl]-5-[1-(2-methylpropyl)-1H-pyrazol-4-yl]thiophene-2-carboxamide], the pIC50 is less than 5.00.

For the compound `CC(C)Cn1cc(-c2cc(C(=O)N[C@@H]3CCN(c4cnnc(Cl)c4Cl)C3)cs2)cn1` [Example 622, N-[(3R)-1-(5,6-dichloropyridazin-4-yl)pyrrolidin-3-yl]-5-[1-(2-methylpropyl)-1H-pyrazol-4-yl]thiophene-3-carboxamide], the pIC50 is less than 5.00.

The record behind these values is patent US20130303509A1, “NAMPT INHIBITORS” (AbbVie Inc., priority 2012, published 2013).
